Results on eleven molecules are retold here after patent publication US6171786A, “Methods for preventing multidrug resistance in cancer cells” (priority 1996, dated 2001).

Entries after “also recorded” stand apart in the source; their conditions may differ.

The subject of data set [1] is MDR1 expression. The data set can be described thus: Induction of MDR1 expression by agents that increase intracellular Ca2+. The data set is classed as cell-based, human. The following applies: H9 cells; 10 μM, 10 hrs. How it is done: H9 cells were seeded into each well of 6-well plates (10^5 cells/well in 3 mL of RPMI-1640 medium/10% fetal bovine serum/2 mM L-glutamine/100 U/mL penicillin and 100 μg/mL streptomycin). Experimental cultures were treated with either the calcium-specific ionophore A23187 or an inhibitor of Ca^2+ -dependent ATPase, thapsigargin. Cells were incubated with 10 μM A23187 or 10 μg/mL thapsigargin for 10 hrs at 37° C., 5% CO2 in a humidified atmosphere. Negative control cultures were incubated as above without the addition of either A23187 or thapsigargin.
After each incubation was complete, steady-state levels of MDR1- and β2 -microglobulin mRNA (internal standard) were determined by RT-PCR as described above in Example 4. PCR products were then analyzed in 7.5% polyacrylamide gel electrophoresis and autoradiographed. […] The absence of the MDR1-specific band and presence of the β2 -microglobulin specific band was consistent with the results on uninduced H9 cells shown above in Examples 4 and 5 and FIGS. 7A through 7F.

Data set [2] relates to MDR1 expression (P-glycoprotein). The data set can be described thus: Induction of MDR1 expression by cytotoxic drugs (dye efflux, UIC2, cDNA-PCR). Format: cell-based, human. The note with it: for maintenance of MDR1 expression after removal of drug: K562 subpopulation. The procedure:
(Commercially-available kits (for example, from GIBCO/BRL, Gaithersburg, Md.) can be advantageously modified for making cDNA using random hexamers.) PCR is then performed using the following primers: […]
(where β2 M represents β2 microglobulin). PCR was performed for β2 M experiments under a regime consisting of 1 cycle comprising denaturation at 94° C. for 3 minutes, primer annealing at 60° C. for 30 seconds, and primer extension at 72° C. for 1 minute, followed by 19 cycles comprising denaturation at 94° C. for 30 seconds, primer annealing at 60° C. for 30 seconds, and primer extension at 72° C. for 1 minute, followed by a final cycle comprising denaturation at 94° C. for 30 seconds, primer annealing at 60° C. for 30 seconds, and primer extension at 72° C. for 5 minutes. MDR1 cDNA sequences were amplified using the identical protocol as for β2 M, but extending the amplification from 19 cycles to 25 cycles. In addition, the cDNA-PCR amplification protocol contained the following modifications: (i) Taq DNA polymerase was added to the PCR mixtures after initial heating of the samples to 94° C. (ii) The yield of the β2 -microglobulin-specific band, obtained after 22-28 cycles of PCR, was used as the primary criterion for equalizing the starting amounts of the cDNA templates in different preparations, in order to account for differential RNA degradation in cells subjected to different types of treatment. ^32 P-labeled PCR products were detected by autoradiography.
In particular PKC is activated by treatment with Ara-C. Therefore, experiments were performed to test whether Ara-C, which is not transported by P-glycoprotein, would have any effect on P-glycoprotein function in K562 leukemia cells.
Also assayed was whether drug-induced MDR1 expression was maintained after cytotoxic drug treatment. […] At different times, MDR1 expression in the surviving cells was analyzed by dye efflux and immunofluorescence labeling with UIC2 (FIG. 3C) or by cDNA-PCR (FIG. 4E).

In the next data set the test system is MRP expression. Kind of data set: Inhibition of MRP mRNA expression in H-9 cells (cDNA-PCR). More on the design: Inhibition of MRP expression: key to the marks not given beside the values. The data set is classed as cell-based, human. How it is done: Cells were plated in 6-well Falcon tissue culture plates at 3,300 cells per well, and incubated in the appropriate concentrations of drugs. Each of the protein kinase inhibitors to be tested were added at their appropriate final concentrations, and the cells then incubated for 10 hours at 37° C. under an atmosphere of 5% CO2.
PCR was performed using the following primers: […]
(where β2 M represents β2 microglobulin). PCR was performed for β2 M experiments under a regime consisting of 1 cycle comprising denaturation at 94° C. for 3 minutes, primer annealing at 60° C. for 30 seconds, and primer extension at 72° C. for 1 minute, followed by 19 cycles comprising denaturation at 94° C. for 30 seconds, primer annealing at 60° C. for 30 seconds, and primer extension at 72° C. for 1 minute, followed by a final cycle comprising denaturation at 94° C. for 30 seconds, primer annealing at 60° C. for 30 seconds, and primer extension at 72° C. for 5 minutes.
H-9 cells were used to analyze the effect of various protein kinase inhibitors on the expression of the multidrug resistance associated protein MRP (Grant et al., ibid.).

In data set [3] the test system is MDR1 expression. The data set can be described thus: Inhibition of cytotoxic drug-induced MDR1 expression by inhibitors of NF-κB activation. Format: cell-based, human. The following applies: H9.
Data set [4] concerns MDR1 expression. Kind of data set: Inhibition of AraC-induced MDR1 expression by phospholipase C inhibitors (RT-PCR). The data set is classed as cell-based, human. The note with it: U73122 1 and 10 μM; H9, 25 μM AraC. How it is done:
The inhibitor was added 45 min. prior to the addition of Ara C. Negative control cultures were incubated as above without the addition of either AraC or U73122.
The specificity of phospholipase C-targeted inhibition of MDR1 induction by cytotoxic drugs was determined in a comparative experiment using a known inhibitor of […] phospholipase C (PC-PLC).

Data set [5] deals with MDR1 expression. Kind of data set: Inhibition of cytotoxic drug-induced MDR1 expression by cytoplasmic calcium antagonists and calmodulin inhibitors. The data set is classed as cell-based, human. The following applies: H9, 10 μM calmidazolium chloride, 25 μM AraC. The procedure:
H9 cells were incubated as described above in the presence of the following cytotoxic drugs: Ara C (at a concentration of 25 μM), Adriamycin (2 μM), bleomycin (100 μg/ml), 2-deoxyglucose (10 mM) and nocodazole (2.5 μM). In parallel, cultures of H9 cells were incubated in the presence of each of these cytotoxic drugs and of a highly specific chelator of intracellular calcium ion, 1, 2-bis(o-aminophenoxy)-ethane-N,N,N',N'-tetraacetic acid, tetra(acetoxymethyl)-ester (BAPTA/AM) at a concentration of 5 μM for 10 hrs. under the conditions described above. The inhibitor was added 45 min. prior to the addition of each of the MDR1 inducing agents. cDNA-PCR analysis, including gel electrophoresis and autoradiography as described above, was performed for each culture after drug treatment in the presence or absence of this chelator.
H9 cells were incubated as above with 25 μM AraC in the presence or absence of 10 μM calmidazolium chloride, and cDNA-PCR analysis as described above was performed.

For data set [6], the system named is MDR1 expression. Kind of data set: Inhibition of cytotoxic drug-induced MDR1 expression by protein kinase inhibitors (cDNA-PCR). How it is done:
(§1) Cells were plated in 6-well Falcon tissue culture plates at 3,300 cells per well, and incubated in the appropriate concentrations of drugs. Each of the protein kinase inhibitors to be tested were added at the appropriate final concentration 45 minutes prior to MDR1 induction by the addition of Ara-C or TPA, with the exception of herbimycin A, which was added 12 hours prior to Ara-C or TPA, and tyrphostins A25 and B46, which were each added 16 hours prior to MDR1 induction by the addition of Ara-C or TPA. Cells were incubated overnight (TPA) or for 10 hours (Ara-C) at 37° C./ 5% CO2 after the addition of the MDR1 inducing agents before harvesting for cDNA-PCR analysis.
In addition, the analysis of certain drugs imposed added requirements. For experiments using calphostin C, cells were incubated under direct white light illumination. For experiments using D,L-threo-sphingosine, the cell culture medium was pre-treated with the appropriate concentration of the drug for one hour at 37° C. with continuous gentle mixing. After this pretreatment, cells were resuspended in media supplemented with drug and incubated for 45 minutes as described above.
To further evaluate the capacity of protein kinase inhibitors to suppress MDR1 induction by cytotoxic drugs and PKC agonists, H-9 human T-cell leukemia cells were used in cDNA-PCR assays to examine induced MDR1 mRNA expression levels in the presence of protein kinase inhibitors.

Data set [7] has as its system MDR1 expression. The data set can be described thus: Inhibition of TPA- or DOG-induced MDR1 expression. The note with it: H-9 cells; 32 μM erbstatin analog. Format: cell-based, human. The procedure:
PBL were treated with 1 ng/mL TPA; H9 and K562 cells with 10 ng/mL TPA; KG1a and KG1 cells with 100 ng/mL TPA and the other cell lines with 10 ng/mL TPA.
as §1

Turning to `CNc1ccc2oc(C[C@H]3O[C@@]4(CC[C@H]3C)O[C@H]([C@H](C)C(=O)c3ccc[nH]3)[C@H](C)C[C@H]4C)nc2c1C(=O)O` [A23187], the “MDR1 expression (RT-PCR)” value in the data set on MDR1 expression [1] is given as “capable of inducing MDR1 gene expression; also recorded: a clear MDR1-specific band was detected”.

On to `Nc1ccn([C@@H]2O[C@H](CO)[C@@H](O)[C@@H]2O)c(=O)n1` [Ara-C, 1-β-D-arabinofuranosylcytosine], for which the “MDR1 mRNA expression” value in data set [2] (EJ bladder carcinoma, 10 μM Ara-C) is listed as “activated MDR1 mRNA expression”; in data set [2] (H9 T-cell leukemia), “a clear MDR1-specific band was detected”; in data set [2] (K562, cDNA-PCR) it was “dose-dependent increase in MDR1 mRNA expression”; in data set [2] (KB-3-1 epidermoid carcinoma), “activated MDR1 mRNA expression”. Further, the “subpopulation of cells that effluxed Rh123” value in data set [2] (K562, Ara-C 12-72 hours) is reported as 3-17%. Moreover, the “maintenance of MDR1 expression after removal of drug” value in data set [2] (drug-free medium) is listed as “up to 11 weeks”; in data set [2] (treated 3-5 days then drug-free), “maintained for a least several weeks”. Also, in data set [2] (KG1 leukemia cells, 10 μM Ara-C), the P-glycoprotein expression entry is on record as “increased P-glycoprotein expression”. Besides, the MDR1 induction result in data set [2] (human leukemia and solid-tumor derived cell lines, short-term exposure) was “MDR1 induction, both at the mRNA and at the protein levels, was observed”. The MRP expression result in the data set with MRP expression (25 μM Ara-C, data not shown) is “slight decrease in MRP expression”.

On to `Cc1ccc(S(=O)(=O)N[C@@H](Cc2ccccc2)C(=O)CCl)cc1` [N-tosyl-L-phenylalanine chloromethyl ketone], for which, in the data set with MDR1 expression [3] (inhibitor 25 μM), the “inhibition of MDR1 induction by Adriamycin (2 μM)” value (“inhibition … (2 μM)” for short) is given as “completely abrogate induction of MDR1 gene expression” and the “inhibition of MDR1 induction by Ara C (25 μM)” value (“inhibition … (25 μM)” for short) was “completely abrogate induction of MDR1 gene expression; also recorded: complete suppression of AraC-induced MDR1 expression”.

On to `COc1ccc2c(c1)CC[C@@H]1[C@@H]2CC[C@]2(C)[C@@H](NCCCCCCN3C(=O)C=CC3=O)CC[C@@H]12` [U73122, 1-(6-((1β-3-methoxyestra-1,3,5(10)-trien-17-yl)amino)hexyl)-1-H-pyrrole-2,5-dione], for which the “inhibition of AraC-induced MDR1 mRNA” value in the data set on MDR1 expression [4] is listed as “inhibited the induction of MDR1 mRNA; also recorded: reduced the steady-state levels of MDR1 mRNA”.

For the molecule `CC(=O)Oc1ccccc1C(=O)O` [aspirin, acetylsalicylic acid], in the data set on MDR1 expression [3] (inhibitor 10 mM), the “inhibition … (2 μM)” value is “completely abrogate induction of MDR1 gene expression” and the “inhibition … (25 μM)” value is listed as “completely abrogate induction of MDR1 gene expression; also recorded: complete suppression of AraC-induced MDR1 expression”.

For `Clc1ccc(C(c2ccc(Cl)cc2)n2cc[n+](CC(OCc3ccc(Cl)cc3Cl)c3ccc(Cl)cc3Cl)c2)cc1` (stereo not drawn) [calmidazolium chloride], the “inhibition of AraC-induced MDR1 gene expression” value in the data set with MDR1 expression [5] is listed as “inhibit AraC-induced MDR1 gene expression”; in the data set with MDR1 expression [5] (listed as Calmidazolium chloride), “efficiently abrogate AraC induction of MDR1 expression”.

With `COc1ccc2c(c[n+](C)c3c4cc5c(cc4ccc23)OCO5)c1OC` [chelerythrine], the “inhibition of MDR1 induction by cytotoxic drugs” value in the data set on MDR1 expression [6] was “capable of inhibiting MDR1 induction by cytotoxic drugs”. The “prevention of MDR1 induction by chemotherapeutic drugs” value in the data set on MDR1 expression [6] (5 μM chelerythrine) was “prevent MDR1 induction by chemotherapeutic drugs”. In the data set on MDR1 expression [6] (chelerythrine 1 μM and 5 μM, H-9), the “inhibition of Ara-C induced MDR1 expression” value was “Progressive dose-dependent inhibition”. Also, in the data set on MRP expression (1-5 μM), the “MRP expression” value is “capable of inhibiting MRP expression; also recorded: strongly inhibited”.

`COC(=O)C=Cc1cc(O)ccc1O` [methyl-2,5-dihydroxycinnamate]: the “inhibition of TPA-induced MDR1 expression” value in the data set with MDR1 expression [7] is given as “completely inhibited TPA-induced MDR1 expression; also recorded: inhibit MDR1 expression induced by treatment of sensitive cells with TPA”. Also, the “inhibition of Ara-C induced MDR1 expression” value with MDR1 expression [6] (32 μM erbstatin analog, H-9 cells) was “completely inhibit Ara-C induced MDR1 expression”. Moreover, the “MRP expression” value in the data set on MRP expression (32 μM) was “capable of inhibiting MRP expression; also recorded: strongly inhibited”.

As to `S=C(S)N1CCCC1` [pyrrolidone dithiocarbamate], the “inhibition … (25 μM)” value with MDR1 expression [3] (inhibitor 20 μM) is “complete suppression of AraC-induced MDR1 expression”. Also, in the data set on MDR1 expression [3] (inhibitor 100 μM), the “inhibition … (2 μM)” value is recorded as “completely abrogate induction of MDR1 gene expression” and the “inhibition … (25 μM)” value is recorded as “completely abrogate induction of MDR1 gene expression”.

`O=C([O-])c1ccccc1O.[Na+]` [sodium salicylate]: in the data set with MDR1 expression [3] (inhibitor 20 mM), the “inhibition … (2 μM)” value is “completely abrogate induction of MDR1 gene expression” and the “inhibition … (25 μM)” value is given as “completely abrogate induction of MDR1 gene expression; also recorded: complete suppression of AraC-induced MDR1 expression”.

With neomycin sulfate, in the data set with MDR1 expression [6] (10 mM neomycin sulfate), the “inhibition of Ara-C induced MDR1 expression” value is “inhibit Ara-C induced MDR1 expression; also recorded: completely prevent cytotoxic drug and PKC agonist induction of MDR1 expression”. Also, in the data set on MRP expression (10 mM), the “MRP expression” value is “capable of inhibiting MRP expression; also recorded: strongly inhibited”. Further, the “Inhibition of MRP expression” value in the data set on MRP expression (10 mM, 10 h) is given as “++++”.
